Measured values: patent publication US8871460B2, “Gamma-secretase modulatory compounds, methods for identifying same, and uses therefor” (Neurogenetic Pharmaceuticals, Inc., priority 2009, dated 2014)

Tests used:
[1] = target: T1, APP holoenzyme (APP-Holo) (Homo sapiens, UniProt P05067, K670N/M671L); test: Compound 1-conjugated Affi-Gel resin pull-down from CHO-APPSwe whole-cell lysate, immunoblot; format: binding
T1 construct: expressed in transfected cells; host or cells: CHO (Chinese Hamster Ovary)
Method: (§1) Compound 1, which bears a primary amine, was conjugated to Affi-Gel 10 resin (BioRad #153-6046) according to manufacturer's instructions. Compound 1 was dissolved in DMSO to a final concentration of 15 mg/ml. One ml of compound was mixed with approximately 1 ml of resin previously equilibrated in isopropanol. The compound and resin were rotated at room temperature for approximately 3 hr, washed with DMSO and the remaining unreacted groups were blocked with ethanolamine. The efficiency of coupling was generally greater than 80%, as determined by LC-MS analysis, with approximately 10-15 μmol of compound per ml of resin final concentration.
Solubilized whole-cell lysates from CHO-APPSwe cells (Chinese Hamster Ovary cells expressing human APP^695 with the K670N/M671L “Swedish” mutation) were prepared in PLC buffer (20 mM Hepes pH 7.5, 1 mM EDTA, 150 mM NaCl, 1% Triton X-100, 0.2% Tween-20). Lysates were pre-cleared by incubating with 200 μl of blocked resin at 4° C. for 1 hr. The resin was pelleted and the resulting lysate was centrifuged at 13,000×g for 15 min to pellet any protein precipitates. One mg (approximately 2 mg/ml) of the pre-cleared whole cell lysate was incubated with 100 μl of either Compound 1-conjugated resin, or with unconjugated resin, for two hours at room temperature, with constant rotation. […]

Pen-2 [2] = target: T2, Pen-2 (Homo sapiens, UniProt Q9NZ42); test: Binding of Compound 1 to Pen-2 in lysates prepared from PS1-deficient cells
T2 construct: endogenous in cells; host or cells: PS1-deficient cells (not further described)

GST-Pen2 = GST-Pen2 (Homo sapiens, UniProt Q9NZ42); test: Compound 1-conjugated Affi-Gel resin binding of isolated protein, immunoblot; parameters: purchased Abnova Corp H00055851-PO1; settings: elute lane, vs unconjugated resin
Method: (§2) Prior to assessing binding to Compound 1, the proteins used in the binding assay were characterized. Purified GST (Abnova Corp) and GST-Pen2 (Abnova Corp #H00055851-PO1) proteins were confirmed to react with anti-GST (Novagen #71097-3) and anti-Pen-2 (PNT2) antibodies on an immunoblot. […] To prepare purified Pen-2, about 1 μg of GST-Pen-2 was incubated with 4 μg of PreScission™ protease for 4 hr at 4° C. in Cleavage Buffer (50 mM Tris pH 7.4, 150 mM NaCl, 1 mM EDTA, 1% Triton X-100, 10% glycerol, 1 mg/ml phosphatidylcholine). Free GST and protease were removed by adding glutathione resin (Sigma #G4510) for 1 hr with rotation, and spinning down the resin. The supernatant, containing purified Pen-2, was collected.
(§3) Compound 1-conjugated and unconjugated Affi-Gel 10 resins were prepared essentially as described in Example 1. […]

Pen-2 [3] = test: Compound 1-conjugated Affi-Gel resin pull-down from CHO-APPSwe whole-cell lysate, immunoblot; format: binding, Chinese Hamster
Method: as §1
(§4) Solubilized whole-cell lysates from CHO-APPSwe cells (Chinese Hamster Ovary cells expressing human APP^695 with the K670N/M671L “Swedish” mutation) were prepared in PLC buffer (20 mM Hepes pH 7.5, 1 mM EDTA, 150 mM NaCl, 1% Triton X-100, 0.2% Tween-20). Lysates were pre-cleared by incubating with 200 μl of blocked resin at 4° C. for 1 hr. The resin was pelleted and the resulting lysate was centrifuged at 13,000×g for 15 min to pellet any protein precipitates. One mg (approximately 2 mg/ml) of the pre-cleared whole cell lysate was incubated with 100 μl of either Compound 1-conjugated resin, or with unconjugated resin, for two hours at room temperature, with constant rotation. After incubation, the resin was pelleted at low speed and the supernatant (i.e. unbound proteins) collected. The resin was washed 3-5 times with 1 ml of PLC buffer. Bound proteins were eluted with 200-300 μl aliquots of SDS denaturing sample buffer (0.25 M Tris-HCl, pH 6.8; 5% (w/v) SDS; 0.05% bromophenol blue; 10% glycerol; 2.5% 2-mercaptoethanol). Equal volumes of whole cell lysate (WCL) and supernatant in SDS denaturing sample buffer, as well as eluates from each resin, were run in separate lanes on a 4-20% SDS-PAGE gel. The electrophoresed proteins were transferred to a nitrocellulose membrane (Invitrogen #LC2001) and immunoblotted with antibodies that specifically recognize either Pen-2 (PNT2; gift of Gopal Thinakaran, see Luo et al. (2003), J. Biol. Chem. 278:7850-7854), presenilin 1 N-terminal fragment (PS1-NTF; gift of Gopal Thinakaran), presenilin 1 C-terminal fragment (PS1-CTF; Calbiochem #529592), nicastrin (Nct; Sigma #N-1660), amyloid precursor protein (APP; antibody R8666, PCT publication WO 04/018997) or phopholipase C-gamma (PLCγ; Upstate #06-152).

[4] = test system: presenilin 1 C-terminal fragment (PS1-CTF); test: as above; format: binding, Chinese Hamster
Method: as §1, §4

[5] = test system: presenilin 1 N-terminal fragment (PS1-NTF); test: as above; format: binding, Chinese Hamster; settings: some present in eluate, not substantially depleted from starting lysate
Method: as §1, §4

[6] = test system: phopholipase C-gamma (PLCγ); test: as above; format: binding, Chinese Hamster
Method: as §1, §4

nicastrin (Nct) = test: as above; format: binding, Chinese Hamster
Method: as §1, §4

Purified Pen-2 = target: T3, Purified Pen-2 (Homo sapiens, UniProt Q9NZ42); test: Compound 1-conjugated Affi-Gel resin binding of isolated protein, immunoblot; settings: elute lane, vs unconjugated resin
T3 construct: GST (N, cleaved yes); purchased Abnova Corp H00055851-PO1
Method: as §2, §3

GST = target: T4, GST (Schistosoma japonicum, UniProt P08515); test: as above
T4 construct: purchased Abnova Corp
Method: as §2, §3

T3 sequence (Q9NZ42 whole entry): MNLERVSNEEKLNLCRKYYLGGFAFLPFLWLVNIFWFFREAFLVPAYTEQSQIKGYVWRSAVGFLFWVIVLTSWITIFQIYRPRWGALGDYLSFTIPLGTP
T2 sequence (Q9NZ42 whole entry): as above
Sequence of GST-Pen2 (Q9NZ42 whole entry): as above
T1 sequence (P05067 other isoform, or with tags, fused parts or gaps K595N/M596L): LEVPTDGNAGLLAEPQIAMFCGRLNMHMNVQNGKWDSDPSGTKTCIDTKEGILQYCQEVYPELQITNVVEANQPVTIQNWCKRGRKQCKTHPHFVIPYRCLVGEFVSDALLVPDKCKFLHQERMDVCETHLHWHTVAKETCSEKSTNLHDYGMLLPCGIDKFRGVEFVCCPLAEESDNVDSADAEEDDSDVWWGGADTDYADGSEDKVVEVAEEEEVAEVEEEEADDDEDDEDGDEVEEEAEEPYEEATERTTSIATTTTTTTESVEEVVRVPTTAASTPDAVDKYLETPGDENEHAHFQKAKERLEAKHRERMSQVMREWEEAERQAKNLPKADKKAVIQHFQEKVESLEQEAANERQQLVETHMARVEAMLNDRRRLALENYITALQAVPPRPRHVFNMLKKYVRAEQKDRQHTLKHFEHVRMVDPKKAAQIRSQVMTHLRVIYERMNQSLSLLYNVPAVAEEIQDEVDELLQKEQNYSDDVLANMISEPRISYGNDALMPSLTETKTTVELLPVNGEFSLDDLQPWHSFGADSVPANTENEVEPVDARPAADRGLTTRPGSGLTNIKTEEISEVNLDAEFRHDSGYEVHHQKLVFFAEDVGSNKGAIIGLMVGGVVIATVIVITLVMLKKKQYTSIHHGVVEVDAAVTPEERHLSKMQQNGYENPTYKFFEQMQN
T4 sequence (P08515 whole entry): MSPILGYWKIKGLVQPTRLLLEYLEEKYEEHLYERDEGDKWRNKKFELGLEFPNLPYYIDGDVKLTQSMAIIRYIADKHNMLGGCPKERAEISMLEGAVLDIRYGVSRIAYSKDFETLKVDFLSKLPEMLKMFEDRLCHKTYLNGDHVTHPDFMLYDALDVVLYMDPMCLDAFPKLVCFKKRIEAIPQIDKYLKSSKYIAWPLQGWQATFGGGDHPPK

## Cc1cn(-c2ccc(-c3csc(Nc4cc(C(C)C)c(OCCN)cc4C)n3)cc2F)cn1 [Compound 1]
[1]
  binding of APP-Holo to Compound 1-conjugated resin: did not bind
Pen-2 [2]
  binding to Pen-2 present in lysates prepared from PS1-deficient cells: demonstrated binding
GST-Pen2
  binding of GST-Pen-2 to Compound 1-conjugated resin: selectively bind
Pen-2 [3]
  depletion of Pen-2 from whole cell lysate applied to the Compound 1-conjugated column: substantially depleted
Pen-2 [3]; Compound 1-conjugated vs unconjugated Affi-Gel 10 resin, 2 h room temperature
  Pen-2 in SDS eluate from resin: present in the SDS eluate from the Compound 1-conjugated resin, but not from the unconjugated resin
[4]
  binding of PS1-CTF to Compound 1-conjugated resin: did not bind
[5]
  binding of N-terminal fragment (NTF) of PS1 to Compound 1: minimal binding
[6]
  binding of PLCγ to Compound 1-conjugated resin: did not bind
Nicastrin (Nct)
  binding of Nct to Compound 1-conjugated resin: did not bind
Purified Pen-2
  binding of purified Pen-2 to Compound 1-conjugated resin: selectively bind
GST
  binding of GST to Compound 1 resin: did not bind
